Reference: US5275708A, “Cetyltrimethylammonium bromide gel electrophoresis” (Thomas Jefferson University, priority 1992, dated 1994)

Experiments:
[1] = system: enzyme activities of various proteins; assay: Enzyme activities of detergent-treated samples after heating; assay type: biochemical; settings: detergent treated samples heated to 100° C. in the presence of β-mercaptoethanol
Excerpt: Native protein activity was retained after solubilization in CTAB. Enzyme activities of various proteins in CTAB with their activities when solubilized in SDS, or Tx-100 were compared. […] The relative effect of detergent solubilization on native activity varied from protein to protein and, therefore, must be determined empirically.

[2] = system: Alkaline phosphatase; assay: Alkaline phosphatase activity after detergent solubilization; assay type: biochemical; settings: 0.5% detergent; compared to SDS; relative to Tx-100 (100%)
Procedure: (§1) FIG. 4 is a graphical depiction of the effect of detergent solubilization on enzyme activities. Enzyme activities were determined in the presence of 0.5% Tx-100, SDS, or CTAB as described in the Examples. The activities were expressed relative to that in Tx-100 solubilized samples (100%). […] Alkaline phosphatase and horseradish peroxidase were purchased from Sigma. Ca^2+ -ATPase activity was measured in microsomes prepared from day-17 chick chorioallantoic membrane, Oakley et al., Anal. Biochem., 105:361-363 (1980). NAD dependent isocitrate dehydrogenase (ICD) and lactate dehydrogenase (LDH) activities were measured in detergent extracts of JEG-3 human choriocarcinoma cells
(§2) Ca^2+ -ATPase activity was assayed by the method of Tuan and Knowles, J. Biol. Chem., 259:2754-2763 (1984), without further modification. Alkaline phosphatase, lactate dehydrogenase, and isocitrate dehydrogenase activities were measured using protocols supplied with their respective diagnostic kits.

[3] = system: horseradish peroxidase; assay: Horseradish peroxidase activity after detergent solubilization; assay type: biochemical; settings: 0.5% detergent; compared to SDS; relative to Tx-100 (100%)
Procedure: Spectrophotometric Assays. Peroxidase activity was assayed at room temperature using a solution of 0.5 mg/ml diaminobenzidine in 10 mM sodium phosphate buffered 0.9% saline (pH 7.2), containing 0.1% hydrogen peroxide. Reactions were allowed to proceed for 5 minutes, and then were stopped by the addition of 10 mM sodium sulfide to 100 μM. Absorbance at 480 nm was used to determine the degree of product formation.

[4] = system: NAD dependent isocitrate dehydrogenase (ICD); assay: NAD dependent isocitrate dehydrogenase activity in detergent extracts; assay type: biochemical, human; settings: 0.5% detergent; JEG-3 cell extracts; compared to SDS; relative to Tx-100 (100%)
Procedure: as §1, §2

[5] = system: lactate dehydrogenase (LDH); assay: Lactate dehydrogenase activity in detergent extracts; assay type: biochemical, human; settings: 0.5% detergent; JEG-3 cell extracts; relative to Tx-100 (100%)
Procedure: as §1, §2

[6] = system: Ca2+-ATPase; assay: Ca2+-ATPase activity in detergent-solubilized chorioallantoic membrane microsomes; assay type: biochemical; settings: 0.5% detergent; day-17 chick CAM microsomes; relative to Tx-100 (100%)
Procedure: as §1, §2

[7] = α-NH2 group; cited from earlier work

Compound | Enzyme activity after heating [1] | Enzyme activity (AP) in detergent [2] | Enzyme activity (HRP) in detergent [3] | Enzyme activity (ICD) in detergent [4] | Enzyme activity (LDH) in detergent [5] | Enzyme activity (Ca2+-ATPase) in detergent [6] | pKa [7]
CCCCCCCCCCCCOS(=O)(=O)[O-].[Na+] [SDS, sodium dodecylsulfate] | lost all activity | – | – | – | – | – | –
CCCCCCCCCCCCCCCC[N+](C)(C)C.[Br-] [CTAB, Cetyltrimethylammonium bromide] | lost all activity | relatively high levels of enzyme activity | relatively high levels of enzyme activity | relatively high levels of enzyme activity | lack of activity | significantly affected | –
NCCCC[C@H](N)C(=O)O [lysine] | – | – | – | – | – | – | ≈ 9.06
